According to patent publication US20220073495A1 (priority 2020, published 2022):

Experiments:
[1] = tested on: M1 to M2 splicing; type: cell-based, influenza virus (WSN); settings: 1 μM or 2.5 μM, WSN MOI 2 for 8 h
[2] = tested on: NS1 to NS2 splicing; test: qPCR of relative ratio of NS2 to NS1 mRNAs; type: cell-based, influenza virus (WSN); settings: 1 μM or 2.5 μM, WSN MOI 2 for 8 h
[3] = tested on: cellular ATP levels; test: Cellular ATP levels (CellTiter-Glo); type: cell-based; settings: 2.5 μM, 24 h
Description: FIG. 30 depicts cellular ATP levels measured in cells treated with 0.1% DMSO or 2.5 μM of compound 2 at 24 h. Four independent experiments were performed and each contained 6 technical replicates.
ATP was measured by luminescence using the CellTiter-Glo kit (Promega) according to the manufacturer's instructions.

[4] = tested on: A/Panama/99 (H3N2); type: cell-based, influenza A virus
[5] = tested on: A/WSN/33; test: microbe, parasite or virus in culture; type: cell-based, influenza virus; settings: unidentified influenza virus, WSN, A549, 24 h
[6] = tested on: primary human bronchial epithelial cells (HBEC); test: Cell viability of primary human bronchial epithelial cells (CellTiter-Glo); type: cell-based; settings: 24 h
Description: FIG. 38 depicts compound 2 inhibiting influenza virus replication in primary human bronchial epithelial cells at non-toxic concentrations. […] (B) Cell viability was monitored at 24 h after treatment with 0.1% DMSO or compound 2 at the depicted concentrations using CellTiter-Glo. Three independent experiments were performed.

[7] = tested on: viral M mRNA; test: smRNA-FISH of M mRNA in WSN-infected cells; type: cell-based, influenza virus (WSN); settings: 2.5 μM, WSN MOI 2 for 8 h
[8] = tested on: A/Vietnam/1203/04 (H5N1); type: cell-based, influenza A virus
[9] = tested on: bulk cellular poly(A) RNA; test: RNA-FISH of poly(A) RNA in uninfected cells; type: cell-based, Human; settings: 2.5 μM
[10] = tested on: NS mRNA; test: smRNA-FISH of NS mRNA in WSN-infected cells; type: cell-based, influenza virus (WSN); settings: 2.5 μM, WSN MOI 2 for 8 h
[11] = tested on: cellular RNAs; test: Cell fractionation and RNAseq of poly(A) RNA; type: cell-based, human; settings: 2.5 μM, 9 hours, cutoff 1.5-fold
[12] = tested on: A/WSN/33 (H1N1); type: cell-based, influenza A virus
[13] = tested on: A549 cells; test: MTT cytotoxicity assay
[14] = tested on: viral proteins (M1, M2, NA, HA); type: cell-based, A/WSN33
[15] = tested on: HA mRNA; test: smRNA-FISH of HA mRNA in WSN-infected cells; type: cell-based, influenza virus (WSN); settings: 2.5 μM, WSN MOI 2 for 8 h
[16] = tested on: A/WSN/33; type: cell-based, influenza virus
[17] = tested on: cellular GAPDH mRNA; test: smRNA-FISH of GAPDH mRNA in uninfected cells; type: cell-based, Human; settings: 2.5 μM
[18] = in vitro; settings: human, A549 cells

SMILES: O=C(CSc1nc2ccccc2[nH]1)Nc1ccc(Br)cn1 [Compound 2, 2-((1H-benzo[d]imidazol-2-yl)thio)-N-(5-bromopyridin-2-yl)acetamide]
- M1 to M2 splicing (relative ratio of M2 to M1 mRNAs) [1]: No effect
- NS1 to NS2 splicing [2]: slightly inhibited
- cellular ATP levels as a surrogate for cytotoxicity [3]: no significant change
- IC50 in plaque assay relative to NP assay (less) [4]: ~2 fold
- viral replication (viral titer) [4]: inhibited
- IC50 ([5]; read-out: WSN IC50, A549 cells, A/WSN/33 MOI 0.01, 24 h post infection, NP-positive cells): 3.18 µM
- IC90 ([5]; read-out: WSN IC90, A549 cells, A/WSN/33 MOI 0.01, 24 h post infection, NP-positive cells): 16.9 µM
- cell viability of HBEC [6]: non-toxic
- nuclear export of viral M mRNA [7]: robustly inhibited
- total M mRNA fluorescence intensity [7]: did not alter
- viral replication (viral titer) ([8]; A549 cells, MOI 0.01, 24 h): inhibited
- IC50 in plaque assay relative to NP assay (less) ([8]; A/Vietnam/1203/04, plaque assay vs NP assay): ~2 fold
- poly(A) RNA nuclear to cytoplasmic ratio [9]: slightly decreased
- total levels of bulk cellular poly(A) RNA [9]: did not affect
- nuclear retention of NS mRNA [10]: weak nuclear retention
- total levels of the NS mRNA [10]: not altered
- mRNAs down-regulated [11]: 829 mRNAs
- mRNAs more cytoplasmic compared to control cells [11]: 98 mRNAs
- mRNAs preferentially retained in the nucleus [11]: 96 mRNAs
- mRNAs up-regulated [11]: 103 mRNAs
- mRNAs with altered nuclear to cytoplasmic distribution [11]: 194 mRNAs
- IC50 in plaque assay relative to NP assay (less) [12]: ~2 fold
- viral replication (viral titer) [12]: inhibited
- 24 h MTT CC10 ([13]; 24 h, concurrent with immunostaining): 5.839 µM
- cell viability at concentrations inhibiting replication ([13]; MTT, 24 h or 48 h): did not significantly alter
- levels of the viral M1 and M2 proteins as well as NA and HA proteins [14]: decrease
- nuclear export of HA mRNA [15]: robustly inhibited
- viral replication in primary human bronchial epithelial cells [16]: inhibited
- GAPDH mRNA nuclear to cytoplasmic distribution [17]: not affected
- total levels of cellular GAPDH mRNA [17]: slightly decreased
- CC50 at 24 h [18]: > 50 µM
